Patent US20250059220A1, “SUBSTITUTED BENZOTHIOPHENE DERIVATIVES AND METHODS OF USE THEREOF” (Merck Sharp & Dohme LLC, priority 2021, published 2025)

Experiments:
human PTPN2 (1-387) = human PTPN2 (1-387) (Homo sapiens (Human), UniProt P17706); experiment: Human PTPN2 Biochemical Assay; details: DiFMUP substrate
Experimental: Human PTPN2 Biochemical Assay
Test compounds were dissolved in DMSO, and 10-point serial 3-fold dilution series in DMSO were prepared in Echo Qualified 384-well Polypropylene Microplates (Labcyte, San Jose, CA) (top concentration 50 µM). Assay plates (384-well low volume black plates; Corning #3820, Corning, NY) were prepared by dispensing 50 nL of test compound, and DMSO (for high and low controls) by ECHO acoustic dispenser (Labcyte, San Jose CA). This was followed by addition of 5 μL of 0.2 nM human PTPN2 (1-387) solution (prepared in the assay buffer, 50 mM Tris pH 7.4, 150 mM NaCl, 0.01% Tween20, 0.5 mM dithiothreitol) to all wells except the low control. 5 μl of assay buffer was added into the low control, then the plate was incubated for 30 minutes at room temperature. Subsequently, 5 μl of 100 µM DiFMUP (6,8-difluoro-4-methylumbelliferyl phosphate) solution (prepared in assay buffer from 10 mM stock in DMSO) was added to the assay plate and incubated for 1 hour at room temperature. For detection, assay plates were read on SpectraMax Microplate Reader (Molecular Devices), with Excitation wavelength=360 nm and Emission wavelength=460 nm. Test compound effects were normalized to the window defined by the controls, DMSO/buffer, and DMSO/50 pM human PTPN2. Calculated % effects were fit using a 4-parameter algorithm, and EC50 was reported.

human PTPN1 (1-435) = human PTPN1 (1-435) (Homo sapiens (Human), UniProt P18031); experiment: Human PTPN1 Biochemical Assay; details: DiFMUP substrate, read-out: PTP1B IC50
Experimental: Human PTPN1 Biochemical Assay
Test compounds were dissolved in DMSO, and 10-point serial 3-fold dilution series in DMSO were prepared in Echo Qualified 384-well Polypropylene Microplates (Labcyte, San Jose, CA) (top concentration 50 µM). […] 5 μl of assay buffer was added into the low control. The plate was incubated for 30 minutes at room temperature. Subsequently, 5 μl of 100 µM DiFMUP (6,8-difluoro-4-methylumbelliferyl phosphate) solution (prepared in assay buffer from 10 mM stock in DMSO) was added to the assay plate and incubated for 1 hour at room temperature. For detection, assay plates were read on SpectraMax Microplate Reader (Molecular Devices), with Excitation wavelength=360 nm and Emission wavelength=460 nm. […] Calculated % effects were fit using a 4-parameter algorithm, and EC50 was reported.

human PTPN1 (1-435), sequence (P18031 whole entry): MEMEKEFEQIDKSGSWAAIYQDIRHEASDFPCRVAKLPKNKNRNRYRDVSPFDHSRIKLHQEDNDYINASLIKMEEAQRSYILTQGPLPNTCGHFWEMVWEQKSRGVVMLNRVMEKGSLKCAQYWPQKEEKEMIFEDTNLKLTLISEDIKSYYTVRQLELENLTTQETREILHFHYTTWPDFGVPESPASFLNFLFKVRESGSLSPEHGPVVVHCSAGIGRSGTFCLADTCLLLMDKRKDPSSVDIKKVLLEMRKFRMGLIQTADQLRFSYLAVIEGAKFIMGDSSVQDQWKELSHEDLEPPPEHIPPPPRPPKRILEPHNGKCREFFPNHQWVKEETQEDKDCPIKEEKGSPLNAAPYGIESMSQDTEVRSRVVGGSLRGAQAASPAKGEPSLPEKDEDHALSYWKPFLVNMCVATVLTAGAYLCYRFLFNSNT
human PTPN2 (1-387), sequence (P17706 other isoform, or with tags, fused parts or gaps): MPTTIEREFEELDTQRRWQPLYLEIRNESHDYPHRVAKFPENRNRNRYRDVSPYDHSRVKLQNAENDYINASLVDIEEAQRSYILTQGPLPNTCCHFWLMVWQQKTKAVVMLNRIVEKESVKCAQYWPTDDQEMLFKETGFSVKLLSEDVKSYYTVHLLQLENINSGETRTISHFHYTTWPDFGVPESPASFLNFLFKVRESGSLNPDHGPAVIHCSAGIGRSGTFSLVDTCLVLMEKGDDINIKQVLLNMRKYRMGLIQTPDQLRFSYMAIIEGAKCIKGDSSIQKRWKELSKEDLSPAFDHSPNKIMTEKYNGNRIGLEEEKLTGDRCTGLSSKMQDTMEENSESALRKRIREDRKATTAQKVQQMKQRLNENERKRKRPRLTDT

SMILES | IC50 (human PTPN2 (1-387)) | IC50 (human PTPN1 (1-435))
O=C(NC(c1cccnc1)C(F)(F)F)c1ccc2sc(C(F)(F)P(=O)(O)O)c(Br)c2c1 (single isomer, unassigned) [Compound 222a, (S or R)-((3-bromo-5-((2,2,2-trifluoro-1-(pyridin-3-yl)ethyl)carbamoyl)benzo[b]thiophen-2-yl)difluoromethyl)phosphonic acid] | 1880 nM | 1620 nM
O=C(NC(c1cccnc1)C(F)(F)F)c1ccc2sc(C(F)(F)P(=O)(O)O)c(Br)c2c1 (single isomer, unassigned) [Compound 222b, (R or S)-((3-bromo-5-((2,2,2-trifluoro-1-(pyridin-3-yl)ethyl)carbamoyl)benzo[b]thiophen-2-yl)difluoromethyl)phosphonic acid] | 771 nM | 707 nM
CC(NC(=O)c1ccc2sc(C(F)(F)P(=O)(O)O)c(Br)c2c1)c1cccnn1 (single isomer, unassigned) [Compound 225, (R or S)-((3-bromo-5-((1-(pyridazin-3-yl)ethyl)carbamoyl)benzo[b]thiophen-2-yl)difluoromethyl)phosphonic acid] | 2200 nM | 2410 nM
NC(c1cc(OCCCC(F)(F)F)c2sc(C(F)(F)P(=O)(O)O)c(Br)c2c1)C(F)(F)F (single isomer, unassigned) [Compound 261, (R or S)-((5-(1-amino-2,2,2-trifluoroethyl)-3-bromo-7-(4,4,4-trifluorobutoxy)benzo[b]thiophen-2-yl)difluoromethyl)phosphonic acid] | 5880 nM | 2020 nM
NC(=O)c1cc(OCCC2CCCS2(=O)=O)c2sc(C(F)(F)P(=O)(O)O)c(Br)c2c1 (single isomer, unassigned) [Compound 371] | 26.9 nM | 18 nM
NC(=O)c1cc(OCCC2CCCS2(=O)=O)c2sc(C(F)(F)P(=O)(O)O)c(Br)c2c1 (single isomer, unassigned) [Compound 372] | 19.7 nM | 18.2 nM
CC1CCS(=O)(=O)C1CCOc1cc(C(N)=O)cc2c(Br)c(C(F)(F)P(=O)(O)O)sc12 (single isomer, unassigned) [Compound 393] | 48 nM | 56.9 nM
CC1CCS(=O)(=O)C1CCOc1cc(C(N)=O)cc2c(Br)c(C(F)(F)P(=O)(O)O)sc12 (single isomer, unassigned) [Compound 394] | 34.2 nM | 26.1 nM
CC1CCS(=O)(=O)C1CCOc1cc(C(N)=O)cc2c(Br)c(C(F)(F)P(=O)(O)O)sc12 (single isomer, unassigned) [Compound 395] | 17.3 nM | 21.2 nM
CS(=N)(=O)Cc1cc(OCCCC(F)(F)F)c2sc(C(F)(F)P(=O)(O)O)c(Br)c2c1 (single isomer, unassigned) [Compound 411, ((3-bromo-5-(((R or S)-methylsulfonimidoyl)methyl)-7-(4,4,4-trifluorobutoxy)benzo[b]thiophen-2-yl)difluoromethyl)phosphonic acid] | 251 nM | 299 nM
NC(=O)c1cc(OCCC2CCNS2(=O)=O)c2sc(C(F)(F)P(=O)(O)O)c(Br)c2c1 (single isomer, unassigned) [Compound 461, (R or S)-((3-bromo-5-carbamoyl-7-(2-(1,1-dioxidoisothiazolidin-5-yl)ethoxy)benzo[b]thiophen-2-yl)difluoromethyl)phosphonic acid] | 22.5 nM | 21.1 nM
NC(=O)c1cc(OCCC2CCNS2(=O)=O)c2sc(C(F)(F)P(=O)(O)O)c(Br)c2c1 (single isomer, unassigned) [Compound 462] | 12.1 nM | 12.5 nM
O=C(Nc1ccccc1)c1ccc2sc(C(F)(F)P(=O)(O)O)c(Br)c2c1 [Compound 1, ((3-bromo-5-(phenylcarbamoyl)benzo[b]thiophen-2-yl)difluoromethyl)phosphonic acid] | 3010 nM | 1610 nM
NC(=O)c1ccc2sc(C(F)(F)P(=O)(O)O)c(Br)c2c1 [Compound 2] | 5320 nM | 3230 nM
N#Cc1c(C(F)(F)P(=O)(O)O)sc2ccc(C(=O)Nc3ccccc3)cc12 [Compound 3, ((3-cyano-5-(phenylcarbamoyl)benzo[b]thiophen-2-yl)difluoromethyl)phosphonic acid] | 1020 nM | 1130 nM
N#Cc1c(C(F)(F)P(=O)(O)O)sc2ccc(C(=O)NC3CC(F)(F)C3)cc12 [Compound 4] | 1200 nM | 1440 nM
COc1cccc(NC(=O)c2ccc3sc(C(F)(F)P(=O)(O)O)c(C#N)c3c2)c1 [Compound 5] | 896 nM | 1130 nM
N#CCCNC(=O)c1ccc2sc(C(F)(F)P(=O)(O)O)c(C#N)c2c1 [Compound 6] | 4640 nM | 6050 nM
COCCN(CCOC)C(=O)c1ccc2sc(C(F)(F)P(=O)(O)O)c(Br)c2c1 [Compound 7, ((5-(bis(2-methoxyethyl)carbamoyl)-3-bromobenzo[b]thiophen-2-yl)difluoromethyl)phosphonic acid] | 1330 nM | 764 nM

SMILES | IC50 (human PTPN2 (1-387)) | IC50 (human PTPN1 (1-435))
N#Cc1cccc2c(Br)c(C(F)(F)P(=O)(O)O)sc12 [Compound 8, ((3-bromo-7-cyanobenzo[b]thiophen-2-yl)difluoromethyl)phosphonic acid] | 3940 nM | 3270 nM
O=C(Nc1ccccc1)c1ccc2sc(C(F)(F)P(=O)(O)O)c(C(F)(F)F)c2c1 [Compound 9, (difluoro(5-(phenylcarbamoyl)-3-(trifluoromethyl)benzo[b]thiophen-2-yl)methyl)phosphonic acid] | 2130 nM | 2200 nM
O=C(NCc1cccnn1)c1cc(OCCCC(F)(F)F)c2sc(C(F)(F)P(=O)(O)O)c(Br)c2c1 [Compound 10, ((3-bromo-5-((pyridazin-3-ylmethyl)carbamoyl)-7-(4,4,4-trifluorobutoxy)benzo[b]thiophen-2-yl)difluoromethyl)phosphonic acid] | 5.79 nM | 4.61 nM
O=C(NCc1cccnc1)c1ccc2sc(C(F)(F)P(=O)(O)O)c(Br)c2c1 [Compound 11] | 3050 nM | 2160 nM
N#CCCNC(=O)c1ccc2sc(C(F)(F)P(=O)(O)O)c(Br)c2c1 [Compound 12] | 8890 nM | 5250 nM
O=C(NC(c1ccccc1F)C(F)(F)F)c1ccc2sc(C(F)(F)P(=O)(O)O)c(Br)c2c1 (stereo not drawn) [Compound 13] | 5300 nM | 4110 nM
O=C(N[C@@H]1CCC[C@H]1OCc1ccccc1)c1ccc2sc(C(F)(F)P(=O)(O)O)c(Br)c2c1 [Compound 14] | 4120 nM | 2690 nM
O=C(N[C@H]1Cc2ccc(F)cc21)c1ccc2sc(C(F)(F)P(=O)(O)O)c(Br)c2c1 [Compound 15] | 6160 nM | 5620 nM
O=C(NCC1CC1)c1ccc2sc(C(F)(F)P(=O)(O)O)c(Br)c2c1 [Compound 16] | 7250 nM | 5120 nM
O=C(Nc1cccc(OCC2CCCO2)c1)c1ccc2sc(C(F)(F)P(=O)(O)O)c(Br)c2c1 (stereo not drawn) [Compound 17] | 1910 nM | 1460 nM
O=C(Nc1cccc(OC(F)(F)F)c1)c1ccc2sc(C(F)(F)P(=O)(O)O)c(Br)c2c1 [Compound 18] | 2170 nM | 1330 nM
O=C(Nc1ncc(C2CCC2)o1)c1ccc2sc(C(F)(F)P(=O)(O)O)c(Br)c2c1 [Compound 19] | 2350 nM | 1500 nM
O=C(NCc1cccnn1)c1ccc2sc(C(F)(F)P(=O)(O)O)c(Br)c2c1 [Compound 31] | 1460 nM | –
CC(C)(O)CCOc1cc(C(=O)NCc2cccnn2)cc2c(Br)c(C(F)(F)P(=O)(O)O)sc12 [Compound 169] | 133 nM | –
CNC(=O)COc1cc(C(N)=O)cc2c(Br)c(C(F)(F)P(=O)(O)O)sc12 [Compound 246] | 1170 nM | –
NC(=O)c1cc(CCCCC(F)(F)F)c2sc(C(F)(F)P(=O)(O)O)c(Br)c2c1 [Compound 296, ((3-bromo-5-carbamoyl-7-(5,5,5-trifluoropentyl)benzo[b]thiophen-2-yl)difluoromethyl)phosphonic acid] | 241 nM | –
CCCCSc1cc(C(N)=O)cc2c(Br)c(C(F)(F)P(=O)(O)O)sc12 [Compound 309] | 335 nM | –
Cc1nnc(-c2cc(OCCCC(F)(F)F)c3sc(C(F)(F)P(=O)(O)O)c(Br)c3c2)[nH]1 [Compound 417, ((3-bromo-5-(5-methyl-4H-1,2,4-triazol-3-yl)-7-(4,4,4-trifluorobutoxy)benzo[b]thiophen-2-yl)difluoromethyl)phosphonic acid] | 9.08 nM | –
O=P(O)(O)C(F)(F)c1sc2c(OCCCC(F)(F)F)cc(O)cc2c1Br [Compound 419, ((3-bromo-5-hydroxy-7-(4,4,4-trifluorobutoxy)benzo[b]thiophen-2-yl)difluoromethyl)phosphonic acid] | 345 nM | –
